Each block holds one compound with its values, some of them ahead of it.
Target: T1, NR2F6 (Homo sapiens, UniProt P10588)
T1 construct: expressed in transfected cells; also transient transfection
T1 sequence (P10588 1-404): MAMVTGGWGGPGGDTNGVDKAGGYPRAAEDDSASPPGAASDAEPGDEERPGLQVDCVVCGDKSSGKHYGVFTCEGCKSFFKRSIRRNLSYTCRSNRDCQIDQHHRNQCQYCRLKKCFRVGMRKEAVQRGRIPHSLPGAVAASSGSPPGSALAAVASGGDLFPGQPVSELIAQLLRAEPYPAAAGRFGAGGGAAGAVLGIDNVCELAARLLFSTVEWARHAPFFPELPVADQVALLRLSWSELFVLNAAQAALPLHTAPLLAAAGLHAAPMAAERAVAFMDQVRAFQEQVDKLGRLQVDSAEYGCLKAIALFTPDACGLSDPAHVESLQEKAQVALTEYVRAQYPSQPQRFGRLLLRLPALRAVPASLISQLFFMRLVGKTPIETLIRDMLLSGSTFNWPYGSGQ
Test: NR2F6 agonist screening, Firefly signal cmpd/DMSO
Type: cell-based
Set-up: Firefly NR2F6 full length, cmpd/DMSO (mean) / Firefly F4, cmpd/DMSO (mean): unit of the concentration uncertain
Conditions: for Firefly/Renilla (NR2F6 stable, clone F4): ratio Firefly/Renilla; for Firefly, NR2F6 stable (clone F4)/pGL4: ratio of Firefly in NR2F6 stable clone F4 to pGL4

[1] = C11 analogs follow set (Tables 2-10)
[2] = Concentration 2 (unit uncertain)
[3] = Concentration 10 (unit uncertain)
[4] = Concentration 40 (unit uncertain)

Firefly, cmpd/DMSO repeat 1 [1]: 7.9
Firefly, cmpd/DMSO repeat 2 [1]: 7.3
Firefly/Renilla (NR2F6 stable, clone F4) (Table 12): 2.6
Firefly, NR2F6 stable (clone F4)/pGL4 (Table 12): 5.5
Firefly, cmpd/DMSO repeat 1 (Table 12): 7.9
Firefly, cmpd/DMSO repeat 2 (Table 12): 7.3
Compound: O=c1oc2ccccc2cc1S(=O)(=O)c1ccccc1F [Compound C108]

Firefly, cmpd/DMSO repeat 1 [1]: 6.1
Firefly, cmpd/DMSO repeat 2 [1]: 5.3
Compound: O=c1oc2ccc(Cl)cc2cc1S(=O)(=O)c1ccccc1 [Compound C201]

Firefly, cmpd/DMSO repeat 1 [1]: 2.6
Firefly, cmpd/DMSO repeat 2 [1]: 2.4
Compound: COc1cccc(S(=O)(=O)c2cc3cc(Br)ccc3oc2=O)c1 [Compound C185]

Firefly, cmpd/DMSO repeat 1 (Table 9): 2.1
Firefly, cmpd/DMSO repeat 2 (Table 9): 2.7
Compound: COc1cccc2cc(S(=O)(=O)c3ccc(C(C)C)cc3)c(=O)oc12 [Compound C241]

Firefly, cmpd/DMSO repeat 1 [1]: 0.9
Firefly, cmpd/DMSO repeat 2 [1]: 0.8
Compound: COc1ccc2oc(=O)c(S(=O)(=O)c3ccc(C)c(C)c3)cc2c1 [Compound C144]

Firefly, cmpd/DMSO repeat 1 (Table 11): 4.0
Firefly, cmpd/DMSO repeat 2 (Table 11): 4.6
Compound: COc1cc(Br)cc2cc(S(=O)(=O)c3ccc(F)cc3)c(=O)oc12 [Compound C295]

Firefly, cmpd/DMSO repeat 1 [1]: 22.6
Firefly, cmpd/DMSO repeat 2 [1]: 23.4
Firefly/Renilla (NR2F6 stable, clone F4) (Table 13): 1.4
Firefly, NR2F6 stable (clone F4)/pGL4 (Table 13): 8.4
Firefly, cmpd/DMSO repeat 1 (Table 13): 22.6
Firefly, cmpd/DMSO repeat 2 (Table 13): 23.4
Compound: O=c1oc2ccc([N+](=O)[O-])cc2cc1S(=O)(=O)c1ccc(F)cc1 [Compound C137]

Firefly, cmpd/DMSO repeat 1 [1]: 1.7
Firefly, cmpd/DMSO repeat 2 [1]: 5.2
Compound: O=C(Nc1cccc(Cl)c1)c1ccc2oc(=O)c(S(=O)(=O)c3ccc(F)cc3)cc2c1 [Compound C128]

Firefly, cmpd/DMSO repeat 1 [1]: 17.4
Firefly, cmpd/DMSO repeat 2 [1]: 8.2
Firefly/Renilla (NR2F6 stable, clone F4) (Table 12): 2.3
Firefly, NR2F6 stable (clone F4)/pGL4 (Table 12): 8.5
Firefly, cmpd/DMSO repeat 1 (Table 12): 17.4
Firefly, cmpd/DMSO repeat 2 (Table 12): 8.2
Compound: COc1ccc(NC(=O)c2ccc3oc(=O)c(S(=O)(=O)c4ccccc4)cc3c2)cc1 [Compound C177]

Firefly, cmpd/DMSO repeat 1 [1]: 6.6
Firefly, cmpd/DMSO repeat 2 [1]: 6.4
Compound: CC(C)(C)c1ccc(S(=O)(=O)c2cc3cc([N+](=O)[O-])ccc3oc2=O)cc1 [Compound C139]

Firefly, cmpd/DMSO repeat 1 [1]: 3.2
Firefly, cmpd/DMSO repeat 2 [1]: 3.1
Compound: COc1ccc2cc(S(=O)(=O)c3ccc(C)c(C)c3)c(=O)oc2c1 [Compound C270]

Firefly, cmpd/DMSO repeat 1 (Table 11): 3.0
Firefly, cmpd/DMSO repeat 2 (Table 11): 2.6
Compound: O=c1oc2c(Br)cc(Br)cc2cc1S(=O)(=O)c1ccc(Cl)c(Cl)c1 [Compound C287]

Firefly, cmpd/DMSO repeat 1 [1]: 0.9
Firefly, cmpd/DMSO repeat 2 [1]: 1.2
Compound: COc1ccc(S(=O)(=O)c2cc3ccc(OC)cc3oc2=O)cc1 [Compound C266]

Firefly, cmpd/DMSO repeat 1 (Table 11): 1.0
Firefly, cmpd/DMSO repeat 2 (Table 11): 1.3
Compound: COc1ccc(S(=O)(=O)c2cc3cc(Br)cc(Br)c3oc2=O)cc1 [Compound C283]

Firefly, cmpd/DMSO repeat 1 [1]: 17.7
Firefly, cmpd/DMSO repeat 2 [1]: 16.8
Compound: COc1ccccc1NC(=O)c1ccc2oc(=O)c(S(=O)(=O)c3ccccc3)cc2c1 [Compound C123]

Firefly, cmpd/DMSO repeat 1 (Table 11): 18.3
Firefly, cmpd/DMSO repeat 2 (Table 11): 14.8
Firefly/Renilla (NR2F6 stable, clone F4) (Table 13): 1.1
Firefly, NR2F6 stable (clone F4)/pGL4 (Table 13): 9.7
Firefly, cmpd/DMSO repeat 1 (Table 13): 18.3
Firefly, cmpd/DMSO repeat 2 (Table 13): 14.8
Compound: Cc1cc(S(=O)(=O)c2cc3cc(F)cc(F)c3oc2=O)ccc1F [Compound C292]

Firefly, cmpd/DMSO repeat 1 (Table 9): 1.5
Firefly, cmpd/DMSO repeat 2 (Table 9): 1.8
Compound: CCOc1cccc2cc(S(=O)(=O)c3ccc(F)c(C)c3)c(=O)oc12 [Compound C258]

Firefly, cmpd/DMSO repeat 1 [1]: 2.8
Firefly, cmpd/DMSO repeat 2 [1]: 3.1
Compound: COc1ccc2cc(S(=O)(=O)c3ccc(C(C)(C)C)cc3)c(=O)oc2c1 [Compound C268]

Firefly, cmpd/DMSO repeat 1 [1]: 9.5
Firefly, cmpd/DMSO repeat 2 [1]: 15.5
Compound: COc1ccc(S(=O)(=O)c2cc3cc(Cl)ccc3oc2=O)cc1 [Compound C203]

Firefly, cmpd/DMSO repeat 1 (Table 9): 2.9
Firefly, cmpd/DMSO repeat 2 (Table 9): 1.8
Compound: COc1cccc2cc(S(=O)(=O)c3cc(F)cc(F)c3)c(=O)oc12 [Compound C229]

Firefly, cmpd/DMSO repeat 1 (Table 9): 12.5
Firefly, cmpd/DMSO repeat 2 (Table 9): 8.3
Firefly/Renilla (NR2F6 stable, clone F4) (Table 12): 2.5
Firefly, NR2F6 stable (clone F4)/pGL4 (Table 12): 6.5
Firefly, cmpd/DMSO repeat 1 (Table 12): 12.5
Firefly, cmpd/DMSO repeat 2 (Table 12): 8.3
Compound: CCOc1cccc2cc(S(=O)(=O)c3cc(F)cc(F)c3)c(=O)oc12 [Compound C230]

Firefly, cmpd/DMSO repeat 1 [1]: 6.5
Firefly, cmpd/DMSO repeat 2 [1]: 9.0
Compound: O=c1oc2ccc([N+](=O)[O-])cc2cc1S(=O)(=O)c1ccc(Cl)c(Cl)c1 [Compound C153]

Firefly, cmpd/DMSO repeat 1 [1]: 1.3
Firefly, cmpd/DMSO repeat 2 [1]: 1.9
Compound: COc1cccc(S(=O)(=O)c2cc3ccc(OC)cc3oc2=O)c1 [Compound C259]

Firefly, cmpd/DMSO repeat 1 (Table 11): 2.9
Firefly, cmpd/DMSO repeat 2 (Table 11): 2.5
Compound: CC(C)c1ccc(S(=O)(=O)c2cc3cc(Br)cc(Br)c3oc2=O)cc1 [Compound C284]

Firefly, cmpd/DMSO repeat 1 (Table 9): 7.6
Firefly, cmpd/DMSO repeat 2 (Table 9): 5.1
Firefly/Renilla (NR2F6 stable, clone F4) (Table 12): 2.4
Firefly, NR2F6 stable (clone F4)/pGL4 (Table 12): 4.4
Firefly, cmpd/DMSO repeat 1 (Table 12): 7.6
Firefly, cmpd/DMSO repeat 2 (Table 12): 5.1
Compound: CCOc1cccc2cc(S(=O)(=O)c3ccccc3F)c(=O)oc12 [Compound C254]

Firefly, cmpd/DMSO repeat 1 [1]: 35.4
Firefly, cmpd/DMSO repeat 2 [1]: 35.4
Firefly/Renilla (NR2F6 stable, clone F4) (Table 13): 1.6
Firefly, NR2F6 stable (clone F4)/pGL4 (Table 13): 9.1
Firefly, cmpd/DMSO repeat 1 (Table 13): 35.4
Firefly, cmpd/DMSO repeat 2 (Table 13): 35.4
Compound: COc1ccc(S(=O)(=O)c2cc3cc(Br)ccc3oc2=O)cc1OC [Compound C154]

Firefly F4, cmpd/DMSO (mean) [2]: 1.1
Firefly NR2F6 full length, cmpd/DMSO (mean) [2]: 1.3
Firefly F4, cmpd/DMSO (mean) [3]: 1.0
Firefly NR2F6 full length, cmpd/DMSO (mean) [3]: 1.5
Firefly F4, cmpd/DMSO (mean) [4]: 0.8
Firefly NR2F6 full length, cmpd/DMSO (mean) [4]: 1.1
Compound: Cc1cc(C)c(S(=O)(=O)NCc2nc3nc(C)cc(C)n3n2)c(C)c1 [Compound E10]

Firefly, cmpd/DMSO repeat 1 [1]: 1.0
Firefly, cmpd/DMSO repeat 2 [1]: 0.7
Compound: Cc1ccc(NC(=O)c2ccc3oc(=O)c(S(=O)(=O)c4ccccc4)cc3c2)cc1C [Compound C167]

Firefly, cmpd/DMSO repeat 1 [1]: 10.4
Firefly, cmpd/DMSO repeat 2 [1]: 13.5
Compound: CCOc1ccccc1NC(=O)c1ccc2oc(=O)c(S(=O)(=O)c3ccc(F)cc3)cc2c1 [Compound C181]

Firefly, cmpd/DMSO repeat 1 (Table 9): 11.5
Firefly, cmpd/DMSO repeat 2 (Table 9): 7.9
Firefly/Renilla (NR2F6 stable, clone F4) (Table 12): 2.3
Firefly, NR2F6 stable (clone F4)/pGL4 (Table 12): 4.5
Firefly, cmpd/DMSO repeat 1 (Table 12): 11.5
Firefly, cmpd/DMSO repeat 2 (Table 12): 7.9
Compound: CCOc1cccc2cc(S(=O)(=O)c3cccc(Cl)c3)c(=O)oc12 [Compound C256]

Firefly, cmpd/DMSO repeat 1 [1]: 1.7
Firefly, cmpd/DMSO repeat 2 [1]: 1.6
Compound: Cc1ccc(NC(=O)c2ccc3oc(=O)c(S(=O)(=O)c4ccc(Cl)cc4)cc3c2)cc1C [Compound C170]

Firefly, cmpd/DMSO repeat 1 [1]: 9.5
Firefly, cmpd/DMSO repeat 2 [1]: 15.3
Compound: COc1cc(NC(=O)c2ccc3oc(=O)c(S(=O)(=O)c4ccc(C)cc4)cc3c2)cc(OC)c1 [Compound C131]

Firefly, cmpd/DMSO repeat 1 [1]: 3.1
Firefly, cmpd/DMSO repeat 2 [1]: 4.4
Compound: Cc1ccc(S(=O)(=O)c2cc3ccccc3oc2=O)cc1C [Compound C104]

Firefly, cmpd/DMSO repeat 1 [1]: 1.2
Firefly, cmpd/DMSO repeat 2 [1]: 1.3
Compound: O=c1oc2cc(O)ccc2cc1S(=O)(=O)c1ccc(F)c(Cl)c1 [Compound C276]

Firefly, cmpd/DMSO repeat 1 [1]: 3.0
Firefly, cmpd/DMSO repeat 2 [1]: 3.0
Compound: COc1ccc2cc(S(=O)(=O)c3ccc(C(C)C)cc3)c(=O)oc2c1 [Compound C269]

Firefly, cmpd/DMSO repeat 1 [1]: 15.2
Firefly, cmpd/DMSO repeat 2 [1]: 14.5
Compound: Cc1ccc(S(=O)(=O)c2cc3cc(Cl)ccc3oc2=O)cc1C [Compound C143]

Firefly, cmpd/DMSO repeat 1 [1]: 3.0
Firefly, cmpd/DMSO repeat 2 [1]: 4.4
Compound: COc1ccc2cc(S(=O)(=O)c3cccc(Cl)c3)c(=O)oc2c1 [Compound C281]

Firefly, cmpd/DMSO repeat 1 [1]: 4.5
Firefly, cmpd/DMSO repeat 2 [1]: 3.7
Firefly/Renilla (NR2F6 stable, clone F4) (Table 13): 2.0
Firefly, NR2F6 stable (clone F4)/pGL4 (Table 13): 3.6
Firefly, cmpd/DMSO repeat 1 (Table 13): 4.5
Firefly, cmpd/DMSO repeat 2 (Table 13): 3.7
Compound: COc1ccc2oc(=O)c(S(=O)(=O)c3cccc(Cl)c3)cc2c1 [Compound C222]

Firefly, cmpd/DMSO repeat 1 [1]: 1.0
Firefly, cmpd/DMSO repeat 2 [1]: 1.3
Compound: COc1ccc2cc(S(=O)(=O)c3ccc(C)cc3)c(=O)oc2c1 [Compound C265]

Firefly/Renilla (NR2F6 stable, clone F4) (Table 13): 1.6
Firefly, NR2F6 stable (clone F4)/pGL4 (Table 13): 4.3
Firefly, cmpd/DMSO repeat 1 (Table 13): 9.8
Firefly, cmpd/DMSO repeat 2 (Table 13): 7.4
Compound: Cc1ccc2oc(=O)c(S(=O)(=O)c3cccc(Cl)c3)cc2c1 [Compound C300]

Firefly, cmpd/DMSO repeat 1 [1]: 1.4
Firefly, cmpd/DMSO repeat 2 [1]: 1.4
Compound: COc1cc(NC(=O)c2ccc3oc(=O)c(S(=O)(=O)c4ccc(F)cc4)cc3c2)cc(OC)c1 [Compound C132]

Firefly, cmpd/DMSO repeat 1 [1]: 1.8
Firefly, cmpd/DMSO repeat 2 [1]: 1.7
Compound: COc1ccc2cc(S(=O)(=O)c3cccc(C#N)c3)c(=O)oc2c1 [Compound C263]

Firefly, cmpd/DMSO repeat 1 [1]: 38.7
Firefly, cmpd/DMSO repeat 2 [1]: 29.4
Firefly/Renilla (NR2F6 stable, clone F4) (Table 12): 2.1
Firefly, NR2F6 stable (clone F4)/pGL4 (Table 12): 7.7
Firefly, cmpd/DMSO repeat 1 (Table 12): 38.7
Firefly, cmpd/DMSO repeat 2 (Table 12): 29.4
Compound: N#Cc1cccc(S(=O)(=O)c2cc3cc(Cl)ccc3oc2=O)c1 [Compound C195]

Source: US11377442B2, “Small molecule agonists and antagonists of NR2F6 activity” (ZANDER THERAPEUTICS, INC., priority 2016, dated 2022)
